Columns and labels:
Human RBCs = assay: OSCN^−/OCN^− effects on intact RBC glutathione, enzymes and hemolysis; format: cell-based; conditions: lysates and membranes of RBCs exposed to 100 μM OSCN^−/OCN^−; 10 mM DTT
Method: After 30 minutes, cells were pelleted by centrifugation at 2000×g for 3 minutes and washed three times in ice-cold HEPES/Hanks' (H & H) buffer. […] RBC lysates and membranes were then prepared by hypotonic lysis and assayed for glutathione and glyceraldehyde-3-phosphate dehydrogenase (GAPDH), glutathione-S-transferase (GST), and lactate dehydrogenase (LDH) activity as described by Beutler (see Beutler (1974) Red Cell Metabolism A Manual of Biochemical Methods Grune and Stratton, Inc., Orlando, Fla.) and for ATPase activity as described below. Hemolysates were incubated for an additional 15 minute with or without 10 mM DTT and reassayed for GAPDH, GST, and ATPases.
Intracellular levels of the SH-containing oxidant scavenger glutathione were assayed. In addition, the activities of three enzymes, GST, GAPDH, and membrane ATPases, which are known to be vulnerable to SH-oxidation-based inactivation, as well as LDH which is not prone to such inactivation were assayed.

[1] = intranasal 1 mM SCN^−, 1 mM Br^− or 100 μM NO2^−
Method: The following experiment is performed to determine if by directly manipulating the relative substrate halide composition of the intrabronchial luminal contents, the severity of the resulting EPO-mediated oxidative damage and so the severity of the induced pathologies can be influenced. […] From the day before initiation of aerosol ovalbumin challenge, four groups of guinea pigs (n=15) are subjected to intranasal instillation of 300 μL of PBS (100 mM Cl^−), PBS+1 mM NaSCN, PBS+1 mM NaBr, or PBS+100 μmol NaNO2 in each nostril. Intranasal instillation is performed every 6 hours until the time of analysis. The numbers of animals in each group is determined from power calculations assuming unpaired design. A group size of 15 animals per group allows for detecting a change in Br—Y, PC50, and histologic severity index amongst the OVA-challenged animal of ≧125% of the S.D. of the experimental groups with 90% power, P<0.05.
As for Section VI, Example 10, pulmonary functions, and chloro-, bromo-, and NO2—Y in BAL and whole lung homogenates are determined. […] Multiple linear regression is used to determine factors responsible for changes in PC50 or histologic severity of airway damage. PC50 or histologic severity is treated as a continuous variable and correlated Br—Y and NO2—Y levels in BAL and whole lung by multiple regression.

RBC ATPases = assay: Oxidant inactivation of RBC membrane ATPase activity; format: biochemical, human; conditions: even at 1 mM
Excerpt: Membrane preparations rather than intact RBC were used to allow all oxidants equal access to intra- and extracellular membrane components.

mammalian cells = assay: Cytotoxicity of hypohalous acids for mammalian cells (51Cr release, hemolysis); format: cell-based; conditions: two hours exposure
Method: (§1) To determine how generation of HOSCN subserves the physiological function of EOs, i.e., to destroy tissue-invasive parasites, the following experiment was performed. Reagent grade HOSCN was generated by (i) adding human EPO (10 μg/mL) and 1 mM NaSCN to Hank's buffer, (ii) adding five 100 μM boluses of H2O2 at 3 minute intervals, (iii) adding 20 μg/mL of catalase to consume unreacted H2O2, and (iv) removing protein by filtration through a PM-10 membrane (Amicon). HOSCN was then assayed by TNB titration. Mammalian cells used included cultured human and porcine aortic endothelium, rat cardiac myocytes, P338D1 murine lymphoma, and RBCs. Freshly transformed S. mansoni schistosomules (obtained from James Kazura at Case Western University) were also used. Both were exposed to reagent HOSCN for two hours, then assayed for cytotoxicity by (i) ^51Cr release, (ii) hemolysis (mammalian cells) or (iii) light microscopy observations of granularity, lack of motion, and methylene blue dye exclusion (somules). Results in Table 1 indicate that HOSCN killed both schistosomules and host cells. Whereas HOCl and HOBr were equally toxic for host cells and somules, HOSCN was 10-15 times more toxic for the parasite.

[2] = tested on: S. mansoni schistosomules; assay: Toxicity of hypohalous acids for schistosomules; format: cell-based; conditions: for toxicity for the parasite relative to host cells: schistosomules vs mammalian cells; for LD50 for schistosomules: two hours exposure
Method: as §1

human EOs [3] = assay: EO-mediated nitration and bromination of HPA; format: cell-based; conditions: PMA-activated EOs; for EO-mediated nitration of HPA: 50 μM NO2^−, 100 μM Br^−
Method: (§2) These studies were performed in the presence of CO2 (5% gas phase) and […] the medium (4.2 mM) to mimic a biologically relevant situation. Leukocytes ([…]) were incubated at 37° C. under 95% air, 5% CO2, in Medium A (Ca^2+/Mg^2+/phenol-free HBSS; Life Technologies, (Gaithersburg, Md.) supplemented with 100 μM NaBr, 50 μM L-arginine, and 200 μM DTPA, pH 7.4 final) in the absence or presence of NaNO2 (0<50 μM, as indicated in the figure legends). […] Cells were activated by addition of PMA (200 nM) and incubated for either 1 hour or the indicated time interval. In some experiments, EOs were activated in the presence of an exogenous NO source by addition of PAPA NONOate (Alexis) for 1 minute following PMA addition. Rates of NO flux were determined spectrophotometrically by reaction of NO with oxyhemoglobin as described in Baek et al. (Baek et al. (1993) J Biol Chem 268:21120) under the identical conditions used for experiments, but in the absence of any added cells. To maintain a final pH of 7.4 during experiments with PAPA NONOate, incubations were performed in Medium B (Medium A containing only 100 mM NaCl and supplemented with 20 mM sodium phosphate, pH 7.4). […] In some cases, leukocyte reaction mixtures also contained one of the following: 1 mM NaN3, 10 mM 3-aminotriazole (Atz), 300 nM catalase (Cat), 300 nM heat-inactivated catalase (hiCat), 10 μg/ml superoxide dismutase (SOD), 1 mM methionine (Met), or 1 mM N^α-acetyl lysine.
(§3) NO2—Y production by isolated EOs was quantified by reversed phase HPLC with photodiode array detection (see Wu et al. (1999) J Biol Chem 274:25933). […] The nitrated (NO2-HPA; 3-(4-hydroxy-3-nitrophenyl)propanoic acid), brominated (Br-HPA; 3-(3-bromo-4-hydroxyphenyl)propanoic acid), and chlorinated (Cl-HPA; 3-(3-chloro-4-hydroxyphenyl)propanoic acid) products of the tyrosine analog, HPA, were routinely quantified by reversed phase HPLC with electrochemical (coulometric) detection on an ESA CoulArray HPLC (Cambridge, Mass.) equipped with UV detector and electrochemical cells (eight channels) (Wu et al. (1999) J Biol Chem 274:25933). […] Authentic standards of NO2-HPA, Br-HPA, and Cl-HPA were prepared by reaction of HPA with a molar equivalent of ONOO^−, HOBr, or HOCl, respectively.
Use of this low molecular mass surrogate for a protein-bound tyrosine residue permitted more facile quantification of the relative capacity of EOs to promote aromatic nitration and halogenation reactions of phenolic targets.

human EOs [4] = assay: NO2—Y formation by activated human EOs; format: cell-based; conditions: agonist 100 nM, exogenous NO2^−
Method: as §2, with “HBSS;” for “HBSS; Life Technologies, (Gaithersburg, Md.) supplemented with 100 μM NaBr, 50 μM L-arginine, and 200 μM DTPA, pH 7.4 final) in the absence or presence of NaNO2 (0<50 μM, as indicated in the figure legends).”, “NO2—Y production by isolated EOs was quantified by reversed phase HPLC with photodiode array detection (see Wu et al. (1999) J Biol Chem 274:25933). […]” for “In some cases, leukocyte reaction mixtures also contained one of the following: 1 mM NaN3, 10 mM 3-aminotriazole (Atz), 300 nM catalase (Cat), 300 nM heat-inactivated catalase (hiCat), 10 μg/ml superoxide dismutase (SOD), 1 mM methionine (Met), or 1 mM N^α-acetyl lysine.”

EPO [5] = target: T1, EPO (Homo sapiens, UniProt P11678); conditions: physiologic concentrations (20-120 μM) of SCN^−; 100 μM Br, 100 mM Cl^−
Excerpt: All other reagents were obtained from Sigma Chemical Co. (St. Louis, Mo.).

EPO [6] = tested on: EPO
Method: The EPO/NO2^−/H2O2 system generates reactive nitrogen species that generates bioactive eicosanoids, e.g. hydroxyeicosatetraenoic acids (HETEs) from unilamellar vesicles comprised of 1-palmitoyl-2-arachidonyl-sn-glycero-3-phosphocholine (PAPC). […] Reaction mixtures consisting of 0.8 mg lipid/mL PAPC, 60 nM EPO, 100 μM NO2^−, 100 ng/mL glucose oxidase, 100 μg/mL glucose were incubated for 2 hours at 37° C. HETEs were analyzed by lipid extraction and HPLC with on-line electrospray ionization tandem mass spectometry (LC/MS/MS).

EPO or LPO = conditions: O2^.− generating system
Method: NO decay was determined in phosphate buffer in the absence versus presence of plasma levels of halides using an NO-selective electrode. NO-saturated buffer was added to a continuously stirred reaction mixture.

LPO, or EPO = conditions: 100 μM SCN^−, LPO or EPO present
[7] = wild type mouse
Method: Mice were sensitized by intranasal instillation of Aspergillus and aeroallogen challenged one month later with aerosol saline (control) or Aspergillus (antigen challenged). At 2 days before the one-month aeroallogen challenge, one group of antigen-challenged animals received i.p. 0.5 mL of 0.1% KSCN and 0.1% KSCN in drinking water. Three days after the aeroallogen challenge, both groups were challenged with intranasal inoculums of Candida and 6 hours later subjected to BAL and the content of supernatant protein Br—Y determined using stable isotope dilution GC-MS.

[8] = SCN^− supplementation
Method: Four experimental groups, each comprised of 15 guinea pigs are utilized for these studies.
The first group is the control and receives KCl in lieu of KClO4 to control for the effect of potassium. […] Perchlorate treatments are initiated three days prior to OVA aerosol challenges and maintained throughout the experimental period until the time of analysis. Specimens are analyzed according to the protocol described. The experimental groups are compared using an appropriate statistical method (i.e., parametric or non-parametric) based upon ANOVA.
All four groups are then pooled to determine correlations between (i) methacholine challenge PC50 and (ii) BAL and whole lung Br—Y and NO2—Y levels. Correlations were also determined between (i) histologic severity and (ii) BAL and/or whole lung Br—Y and NO2—Y levels.

activated EOs = assay: NO2-HPA formation by activated EOs with exogenous NO donor; format: cell-based, human
Method: as §2, §3

EPO [9] = target: T1, EPO
Method: To determine the relative time courses of HOSCN and cyanate generation, H2O2 was added to a reaction mixture containing phosphate buffered saline (PBS) with 1 mM KSCN, pH 7.4, and 0.4 μM EPO. H2O2 was added by continuous infusion at 50 μM/minute for 20 minutes to simulate the continuous generation of H2O2 by the respiratory burst of an activated EO. An aliquot was (i) removed from the reaction mixture prior to and at various time intervals after initiating addition of H2O2, (ii) supplemented with 40 μg/mL catalase to consume unreacted H2O2, and (iii) placed on ice until subsequent assay of oxidants and cyanate as described.
H2O2 was continuously infused at 50 μM/minute for 20 minutes, simulating the continuous generation of H2O2 by the respiratory burst of an activated EO. Aliquots were removed from the reaction mixture at one-minute intervals and catalase was added to destroy excess unreacted H2O2 prior to assay of TNB-reactive substances and cyanate.

activated human EOs = conditions: 5 mM azide
Method: Purified EOs were washed, suspended at 4×10^6/mL in a modified Hank's balanced salt solution composed of 5.3 mM KCl, 138 mM NaCl, 0.4 mM potassium phosphate, 5.3 mM sodium phosphate, 5.5 mM D-glucose, 1.3 mM CaCl2, and 0.5 mM MgCl2, pH 7.4 supplemented with 1 mM KSCN. EOs were divided into three groups that were supplemented with (i) nothing (control), (ii)1 μg/mL phorbol 12-myristate 13-acetate (PMA), or (iii) 1 μg/mL PMA and 5 mM azide. EOs were then incubated at 37° C. for 60 minutes in capless 5 mL round-bottom tubes. The tubes were vortexed every 15 minutes to aid oxygenation. After the incubation, the samples were centrifuged for 10 minutes, 1000×g at 4° C. The supernatants were placed in Microcon concentrators (Amicon, Mass.) with membranes of 3000 Dalton molecular weight cut off and centrifuged for 30 minutes, 13,000×g at 4° C. to remove degranulated proteins. The filtrates were assayed for HOSCN and cyanate quantities.
As a gauge of the potential physiologic relevance of the above findings—all made with a purified reagent system—intact, activated human EOs were examined to determine whether HOSCN and OCN^− are generated. […]

MPO = MPO (Homo sapiens, UniProt P05164); conditions: pre-incubation of the enzyme solution
Method: Initial experiments utilized an NO-selective electrode (ISO-NO Mark II, World Precision Instruments, Sarasota, Fla.) to determine whether NO serves as a general substrate for peroxidases. Reactions were performed under conditions where peroxidases were present in catalytic amounts Experiments were performed at 25° C. by immersing the electrode in 10 mL of 0.2 M sodium phosphate buffer, pH 7.0, under air. NO was added to continuously stirred buffer solution from an NO-saturated stock and the rise and fall in NO concentration was continuously monitored using a chart recorder. To determine the effect of H202 and peroxidases on NO levels during steady state catalysis, 10 μl H202 (100 μM final) and 50 μL enzyme (150 nM final) were added to the reaction mixture. Where indicated, solutions were supplemented with NaCl (100 mM) and/or a cell-free O2^.−-generating system comprised of lumazine (0.4 mm) and bovine milk xanthine oxidase (XO, Boehringer Mannheim).
To examine the potential physiological significance of these observations, the effect of additional substrates on peroxidase-catalyzed consumption of NO was examined. MPO was initially used as a model peroxidase because of its abundance at sites of leukocyte recruitment and activation during inflammation and its well-known use of the abundant halide Cl^− as substrate.

[10] = high rates of NO flux (>2 μM/min)
[11] = low rates of NO flux (<2 μM/min)

T1 sequence (P11678 251-715 limits assumed): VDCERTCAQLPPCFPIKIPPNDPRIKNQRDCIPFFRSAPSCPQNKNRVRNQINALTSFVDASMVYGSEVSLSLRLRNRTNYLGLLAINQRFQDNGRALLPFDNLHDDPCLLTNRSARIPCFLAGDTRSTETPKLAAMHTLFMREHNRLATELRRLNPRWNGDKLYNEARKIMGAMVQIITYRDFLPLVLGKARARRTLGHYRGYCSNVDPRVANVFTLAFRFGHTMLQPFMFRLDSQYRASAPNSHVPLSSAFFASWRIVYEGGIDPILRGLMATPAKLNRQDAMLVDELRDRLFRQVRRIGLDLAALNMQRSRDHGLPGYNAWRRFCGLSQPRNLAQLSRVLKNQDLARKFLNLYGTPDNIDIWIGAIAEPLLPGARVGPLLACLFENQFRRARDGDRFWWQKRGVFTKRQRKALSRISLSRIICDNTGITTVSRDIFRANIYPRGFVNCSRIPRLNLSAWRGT
T1 sequence (P11678 140-250 limits assumed): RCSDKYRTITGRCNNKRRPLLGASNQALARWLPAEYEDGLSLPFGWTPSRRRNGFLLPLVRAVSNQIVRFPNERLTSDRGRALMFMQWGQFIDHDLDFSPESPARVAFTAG
MPO, sequence (P05164 279-745 limits assumed): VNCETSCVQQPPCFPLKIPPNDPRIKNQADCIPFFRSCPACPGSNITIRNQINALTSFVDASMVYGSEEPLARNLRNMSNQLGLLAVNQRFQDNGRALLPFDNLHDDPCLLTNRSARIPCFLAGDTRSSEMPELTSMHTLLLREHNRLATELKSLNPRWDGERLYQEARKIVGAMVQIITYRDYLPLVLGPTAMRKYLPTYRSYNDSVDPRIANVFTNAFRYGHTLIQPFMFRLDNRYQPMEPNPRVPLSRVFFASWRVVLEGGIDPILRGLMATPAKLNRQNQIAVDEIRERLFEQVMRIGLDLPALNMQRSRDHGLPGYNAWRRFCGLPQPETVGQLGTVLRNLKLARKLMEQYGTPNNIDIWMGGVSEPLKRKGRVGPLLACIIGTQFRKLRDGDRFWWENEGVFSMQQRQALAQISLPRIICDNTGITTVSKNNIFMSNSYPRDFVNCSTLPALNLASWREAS
MPO, sequence (P05164 165-273 limits assumed): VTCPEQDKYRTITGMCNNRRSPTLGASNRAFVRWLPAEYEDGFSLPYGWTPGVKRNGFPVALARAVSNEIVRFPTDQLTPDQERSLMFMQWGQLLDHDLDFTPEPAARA

O[C@H](CS)[C@H](O)CS (racemic) [DTT, dithiothreitol]
GST, GAPDH and ATPase activity after OSCN^−/OCN^− exposure (Human RBCs): completely restored the activities of all three enzymes

Br [Br^−, bromide]
levels of Br—Y and NO2—Y and severity of resulting asthma [1]: increase

OO [H2O2, hydrogen peroxide]
inactivation of RBC ATPases (RBC ATPases): failed to inactivate ATPases

OBr [HOBr, hypobromous acid]
LD50 for mammalian cells (mammalian cells): 10 to 33 µM | toxicity for the parasite relative to host cells [2]: equally toxic | LD50 for schistosomules [2]: 10 µM

OCl [HOCI, hypochlorous acid]
LD50 for mammalian cells (mammalian cells): 10 to 33 µM | toxicity for the parasite relative to host cells [2]: equally toxic | LD50 for schistosomules [2]: 10 µM

N#CSO [HOSCN]
LD50 for mammalian cells (mammalian cells): 200 to 300 µM | toxicity for the parasite relative to host cells [2]: 10-15 times | LD50 for schistosomules [2]: 20 µM

CC(=O)N[C@@H](CCCCN)C(=O)O [N-acetyl lysine, N^α-acetyl lysine]
cell-dependent bromination of HPA (human EOs [3]): lack of inhibition

CSCC[C@H](NC=O)C(=O)N[C@@H](CC(C)C)C(=O)N[C@@H](Cc1ccccc1)C(=O)O [N-formyl-methionyl-leucyl-phenylalanine]
NO2—Y levels produced, less than with PMA-stimulated EOs (human EOs [4]): 8 fold

O=NO [NO2^−, nitrite]
levels of Br—Y and NO2—Y and severity of resulting asthma [1]: increase

N#CS [SCN^−, thiocyanate]
EPO production of HOBr (EPO [5]): blocked | HETE generation from PAPC vesicles by EPO/SCN^−/H2O2 system (EPO [6]; 100 μM SCN^−): no detectable HETEs | HETE generation from PAPC vesicles by EPO/NO2^−/H2O2 system (EPO [6]; physiological concentration of SCN^−): severely attenuated | peroxidase-mediated NO consumption (EPO or LPO): attenuation/inhibition of peroxidase-mediated NO consumption | relaxation of preconstricted bronchial rings in response to NO (LPO, or EPO): do so when high physiologic concentrations of SCN^− are added | BrY reduced from w.t. antigen-challenged ([7]; SCN supplemented): BrY 86% reduced | Lavage fluid bromotyrosine ([7]; antigen challenge, 0.1% KSCN i.p. and in drinking water): 196 ± 103 μmol Br—Y/μmol Y | mean lung Br—Y/Y (NaSCN i.p. and 0.2% in drinking water, OVA challenge): 0.93 mmol/mol | rise of Br—Y/Y after OVA challenge (dietary supplementation with SCN^− prior to OVA challenge): completely abrogated | levels of Br—Y and NO2—Y and severity of resulting asthma [1]: ameliorates | Br—Y and NO2—Y levels, functional and histologic pulmonary pathology [8]: will reduce

[N-]=[N+]=[N-].[Na+] [azide, sodium azide]
EO-mediated nitration of HPA (human EOs [3]): inhibited | NO2-HPA formation (activated EOs; [10]): increasingly less sensitive to inhibition | NO2-HPA formation (activated EOs; [11]): inhibited | generation of both HOSCN and OCN^− (EPO [9]; azide 1 mM): nearly completely blocked | HOSCN levels at plateau stage of progression curve (EPO [9]; azide added during H2O2 infusion): abrupt collapse of HOSCN levels | PMA-stimulated generation of HOSCN and OCN^− (activated human EOs): severely attenuated | NO consumption by MPO (MPO): prevented

CSCC[C@H](N)C(=O)O [methionine]
EO-mediated nitration of HPA (human EOs [3]): inability of the HOBr scavenger methionine to affect nitration

B1: catalase: hydrogen peroxide scavenger (protein, UniProt P00432 2-527, looked up)
Catalase: ADNRDPASDQMKHWKEQRAAQKPDVLTTGGGNPVGDKLNSLTVGPRGPLLVQDVVFTDEMAHFDRERIPERVVHAKGAGAFGYFEVTHDITRYSKAKVFEHIGKRTPIAVRFSTVAGESGSADTVRDPRGFAVKFYTEDGNWDLVGNNTPIFFIRDALLFPSFIHSQKRNPQTHLKDPDMVWDFWSLRPESLHQVSFLFSDRGIPDGHRHMNGYGSHTFKLVNANGEAVYCKFHYKTDQGIKNLSVEDAARLAHEDPDYGLRDLFNAIATGNYPSWTLYIQVMTFSEAEIFPFNPFDLTKVWPHGDYPLIPVGKLVLNRNPVNYFAEVEQLAFDPSNMPPGIEPSPDKMLQGRLFAYPDTHRHRLGPNYLQIPVNCPYRARVANYQRDGPMCMMDNQGGAPNYYPNSFSAPEHQPSALEHRTHFSGDVQRFNSANDDNVTQVRTFYLKVLNEEQRKRLCENIAGHLKDAQLFIQKKAVKNFSDVHPEYGSRIQALLDKYNEEKPKNAVHTYVQHGSHLSAREKANL
EO-mediated nitration of HPA (human EOs [3]): inhibited | NO2-HPA formation (activated EOs; [10]): increasingly less sensitive to inhibition | NO2-HPA formation (activated EOs; [11]): significantly attenuated

From patent US20040028749A1, “Treating inflammation and associated complications” (priority 2000, published 2004)
